Holding throughout (type): in vivo
The test system of assay [1] is Setaria faberi (SETFA). The experiment in a line: Example B pre-emergence herbicidal activity, glasshouse pot test. The note with it: 312 h, evaluated after 13 days, read-out: Pre-emergence activity SETFA (100=total damage to plant; 0=no damage to plant); for pest or weed control at 1000 g/ha: rate 1000 g/ha; for pest or weed control at 250 g/ha: rate 250 g/ha. Summed up:
(§1)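 Compound sprayed in acetone/water (50:50) plus 0.5% Tween 20 onto potted soil one day post-sowing, or onto seedlings after 8 days. Scored 0–100 for damage after 13 days.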

The test system of assay [2] is Solanum nigrum (SOLNI). The assay is described as above. The following applies: 312 h, evaluated after 13 days, read-out: Pre-emergence activity SOLNI (100=total damage to plant; 0=no damage to plant); for pest or weed control at 1000 g/ha: rate 1000 g/ha; for pest or weed control at 250 g/ha: rate 250 g/ha. Summed up: as §1
The test system of assay [3] is Alopecurus myosuroides (ALOMY). The assay is described as above. The following applies: 312 h, evaluated after 13 days, read-out: Pre-emergence activity ALOMY (100=total damage to plant; 0=no damage to plant); for pest or weed control at 1000 g/ha: rate 1000 g/ha; for pest or weed control at 250 g/ha: rate 250 g/ha. In a few lines:
as §1

The subject of assay [4] is Avena fatua (AVEFA). The assay is described as above. The following applies: 312 h, evaluated after 13 days, read-out: Pre-emergence activity AVEFA (100=total damage to plant; 0=no damage to plant); for pest or weed control at 1000 g/ha: rate 1000 g/ha; for pest or weed control at 250 g/ha: rate 250 g/ha. Summed up: as §1
For assay [5], the system named is Echinochloa crus-galli (ECHCG). The assay is described as above. The note with it: 312 h, evaluated after 13 days, read-out: Pre-emergence activity ECHCG (100=total damage to plant; 0=no damage to plant); for pest or weed control at 1000 g/ha: rate 1000 g/ha; for pest or weed control at 250 g/ha: rate 250 g/ha. In a few lines: as §1
Assay [6] deals with Amaranthus retroflexus (AMARE). The description is as above. The note with it: 312 h, evaluated after 13 days, read-out: Pre-emergence activity AMARE (100=total damage to plant; 0=no damage to plant); for pest or weed control at 1000 g/ha: rate 1000 g/ha; for pest or weed control at 250 g/ha: rate 250 g/ha. Summed up:
as §1

The subject of assay [7] is Setaria faberi (SETFA). The experiment in a line: Example B post-emergence herbicidal activity, glasshouse pot test. The note with it: 312 h, evaluated after 13 days, read-out: Post-emergence activity SETFA (100=total damage to plant; 0=no damage to plant); for pest or weed control at 1000 g/ha: rate 1000 g/ha; for pest or weed control at 250 g/ha: rate 250 g/ha. Summed up:
as §1

The subject of assay [8] is Solanum nigrum (SOLNI). The description is as above. The note with it: 312 h, evaluated after 13 days, read-out: Post-emergence activity SOLNI (100=total damage to plant; 0=no damage to plant); for pest or weed control at 1000 g/ha: rate 1000 g/ha; for pest or weed control at 250 g/ha: rate 250 g/ha. In a few lines:
as §1

For assay [9], the system named is Alopecurus myosuroides (ALOMY). Described as above. The note with it: 312 h, evaluated after 13 days, read-out: Post-emergence activity ALOMY (100=total damage to plant; 0=no damage to plant); for pest or weed control at 1000 g/ha: rate 1000 g/ha; for pest or weed control at 250 g/ha: rate 250 g/ha. Summed up: as §1
The subject of assay [10] is Avena fatua (AVEFA). The description is as above. The note with it: 312 h, evaluated after 13 days, read-out: Post-emergence activity AVEFA (100=total damage to plant; 0=no damage to plant); for pest or weed control at 1000 g/ha: rate 1000 g/ha; for pest or weed control at 250 g/ha: rate 250 g/ha. In a few lines:
as §1

Assay [11] deals with Echinochloa crus-galli (ECHCG). The description is as above. The note with it: 312 h, evaluated after 13 days, read-out: Post-emergence activity ECHCG (100=total damage to plant; 0=no damage to plant); for pest or weed control at 1000 g/ha: rate 1000 g/ha; for pest or weed control at 250 g/ha: rate 250 g/ha. In a few lines: as §1
For assay [12], the system named is Amaranthus retroflexus (AMARE). Described as above. The following applies: 312 h, evaluated after 13 days, read-out: Post-emergence activity AMARE (100=total damage to plant; 0=no damage to plant); for pest or weed control at 1000 g/ha: rate 1000 g/ha; for pest or weed control at 250 g/ha: rate 250 g/ha. In a few lines:
as §1

Consider `Cc1ccc(-c2cccc(C#N)c2)cc1C1=C(O)C(C)(C)OC(C)(C)C1=O` [Compound A-22], for which the pest or weed control at 1000 g/ha was 40% with Setaria faberi (SETFA) [1]; 60% in the assay with Solanum nigrum (SOLNI) [2]; 40% in assay [3]; 20% in the assay with Avena fatua (AVEFA) [4]; 90% in assay [5]; 30% in [6]. Also, the pest or weed control at 1000 g/ha with Setaria faberi (SETFA) [7] came to 20%; in the assay with Solanum nigrum (SOLNI) [8] it was 90%; in assay [9] it was 30%; with Avena fatua (AVEFA) [10], 0%; in assay [11], 80%; in [12], 0%.

For `CCc1ccc(-c2ccc(Cl)cc2)cc1C1=C(OC(=O)C(C)CC)C(C)(C)OC(C)(C)C1=O` [Compound D-11], the pest or weed control at 1000 g/ha came to 90% in the assay on Setaria faberi (SETFA) [1]; 0% with Solanum nigrum (SOLNI) [2]; 20% in [3]; 0% in the assay on Avena fatua (AVEFA) [4]; 20% in [5]; 0% in [6]. Moreover, the pest or weed control at 1000 g/ha in the assay with Setaria faberi (SETFA) [7] is 90%; in the assay on Solanum nigrum (SOLNI) [8], 0%; in [9], 40%; in the assay with Avena fatua (AVEFA) [10], 0%; in assay [11], 100%; in [12], 0%.

On to `CCc1ccc(-c2ccc(Cl)cc2)cc1C1=C(OC(=O)C(C)(C)OC)C(C)(C)OC(C)(C)C1=O` [Compound D-20], for which the pest or weed control at 1000 g/ha in the assay on Setaria faberi (SETFA) [1] is 90%; in the assay on Solanum nigrum (SOLNI) [2], 0%; in assay [3] it was 30%; with Avena fatua (AVEFA) [4], 0%; in assay [5] it was 60%; in assay [6], 0%. For the same compound, the pest or weed control at 1000 g/ha in the assay on Setaria faberi (SETFA) [7] was determined as 100%; with Solanum nigrum (SOLNI) [8], 0%; in [9], 100%; with Avena fatua (AVEFA) [10], 90%; in [11], 100%; in assay [12] it was 20%.

For `Cc1ccc(-c2ccc(F)c(F)c2)cc1C1=C(O)C(C)(C)OC(C)(C)C1=O` [Compound A-24], the pest or weed control at 1000 g/ha in the assay on Setaria faberi (SETFA) [1] was 90%; in the assay with Solanum nigrum (SOLNI) [2], 20%; in assay [3] it was 80%; in the assay with Avena fatua (AVEFA) [4] it was 60%; in assay [5] it was 100%; in [6] it was 20%. Further, the pest or weed control at 1000 g/ha amounted to 100% in the assay on Setaria faberi (SETFA) [7]; 70% in the assay on Solanum nigrum (SOLNI) [8]; 100% in assay [9]; 80% with Avena fatua (AVEFA) [10]; 100% in assay [11]; 90% in assay [12].

As to `CCc1ccc(-c2ccc(Cl)cc2)cc1C1=C(OC(=O)C(C)OC)C(C)(C)OC(C)(C)C1=O` [Compound D-19], the pest or weed control at 1000 g/ha came out at 100% with Setaria faberi (SETFA) [1]; 0% in the assay on Solanum nigrum (SOLNI) [2]; 70% in assay [3]; 20% with Avena fatua (AVEFA) [4]; 100% in assay [5]; 0% in [6]. For the same compound, the pest or weed control at 1000 g/ha in the assay with Setaria faberi (SETFA) [7] stood at 100%; in the assay on Solanum nigrum (SOLNI) [8] it was 0%; in assay [9] it was 90%; in the assay on Avena fatua (AVEFA) [10] it was 80%; in [11], 100%; in assay [12] it was 0%.

On to `Cc1ccc(-c2ccc(Cl)cc2)cc1C1=C(O)[C@@]2(C)CC[C@H](O2)C1=O` (single isomer, unassigned) [Compound A-30], for which the pest or weed control at 1000 g/ha in the assay on Setaria faberi (SETFA) [1] amounted to 100%; with Solanum nigrum (SOLNI) [2] it was 0%; in assay [3], 80%; in the assay on Avena fatua (AVEFA) [4], 70%; in assay [5], 100%; in assay [6], 0%. Moreover, the pest or weed control at 1000 g/ha with Setaria faberi (SETFA) [7] came out at 100%; with Solanum nigrum (SOLNI) [8], 70%; in assay [9], 90%; in the assay with Avena fatua (AVEFA) [10], 100%; in assay [11] it was 100%; in [12], 70%.

Regarding `Cc1ccc(-c2ccc(C#N)cc2)cc1C1=C(O)C(C)(C)OC(C)(C)C1=O` [Compound A-20], the pest or weed control at 1000 g/ha in the assay with Setaria faberi (SETFA) [1] was determined as 100%; with Solanum nigrum (SOLNI) [2] it was 40%; in assay [3], 90%; in the assay on Avena fatua (AVEFA) [4], 60%; in [5], 100%; in assay [6], 0%. Moreover, the pest or weed control at 1000 g/ha was 100% in the assay with Setaria faberi (SETFA) [7]; 80% in the assay on Solanum nigrum (SOLNI) [8]; 90% in assay [9]; 90% in the assay with Avena fatua (AVEFA) [10]; 100% in assay [11]; 20% in assay [12].

`CCc1ccc(-c2ccc(Cl)nc2)cc1C1=C(O)C(C)(C)C(=O)C(C)(C)C1=O` [Compound B-9]: the pest or weed control at 250 g/ha (in the assay on Setaria faberi (SETFA) [1]; with Solanum nigrum (SOLNI) [2]; in [3]; with Avena fatua (AVEFA) [4]; in assay [5]; in [6]) was 0% each time. For the same compound, the pest or weed control at 250 g/ha is 70% in the assay with Setaria faberi (SETFA) [7]; 20% in the assay with Solanum nigrum (SOLNI) [8]; 40% in assay [9]; 0% in the assay with Avena fatua (AVEFA) [10]; 80% in assay [11]; 40% in [12].

On to `CCc1ccc(-c2ccc(Cl)c(C(F)(F)F)c2)cc1C1=C(O)C(C)(C)C(=O)C(C)(C)C1=O` [Compound B-10], for which the pest or weed control at 250 g/ha in the assay on Setaria faberi (SETFA) [1] was found to be 50%; with Solanum nigrum (SOLNI) [2], 20%; in assay [3], 0%; in the assay with Avena fatua (AVEFA) [4], 0%; in assay [5], 30%; in assay [6] it was 0%. Moreover, the pest or weed control at 250 g/ha in the assay with Setaria faberi (SETFA) [7] was determined as 80%; with Solanum nigrum (SOLNI) [8], 0%; in [9], 40%; in the assay with Avena fatua (AVEFA) [10], 20%; in [11] it was 90%; in assay [12] it was 40%.

For the origin of these results see patent US8680012B2, “4-phenyl-pyrane-3,5-diones,4-phenyl-thiopyrane-3,6-diones and cyclohexanetriones as novel herbicides” (Syngenta Crop Protection LLC, priority 2006, dated 2014).
